Reference: EP0937711A1, “Thiobenzamides, process for their preparation and medicaments containing them” (Roche Diagnostics GmbH, priority 1998, dated 1999)

How the values were obtained:
[1] = test system: Citratplasma; test: Activated partial thromboplastin time (APTT) in citrate plasma; assay type: biochemical; conditions: time as difference to control (control ca. 28-35 s); for APTT 1000: 1000 µM in final volume, stopped after 5 min (>300)
Description: (§1) Neun Teile frisches Blut gesunder Spender werden mit einem Teil Natriumcitratlösung (0.11 Mol/l) gemischt und bei ca. 3000 U/min 10 Minuten bei Raumtemperatur zentrifugiert. Das Plasma wird abpipettiert und kann bei Raumtemperatur ca. 8 h aufbewahrt werden.
100 µl Citratplasma und 100 µl APTT-Reagenz (Diagnostica Stago / Boehringer Mannheim GmbH; enthält Lyophilisat Cephalin mit mikrokristallinem Kieselguraktivator) werden zusammen mit 10 µl Dimethylsulfoxid (DMSO) oder 10 µl einer Lösung der Wirksubstanz in DMSO in einem Kugelkoagulometer (KC10 der Fa. Amelung) 3 Minuten bei 37°C inkubiert. Mit Zugabe von 100 µl 0.025 M Calciumchlorid-Lösung wird eine Stoppuhr gestartet und der Zeitpunkt bis zum Eintritt der Gerinnung bestimmt. Die APTT beträgt bei den Kontrollmessungen ca. 28 -35 Sekunden und wird durch Wirksubstanzen verlängert. Sofern bei den Messungen nach 5 Minuten keine Gerinnung eintrat, wurde der Versuch gestoppt (>300).
In Tabelle 1 sind die gemessenen APTT-Zeiten in Sekunden als Differenz zur Kontrolle angegeben. Die Konzentrationen der Wirksubstanzen betrugen im Endvolumen 1000 µM (APTT 1000), 100 µM (APTT 100), 10 µM (APTT 10), 1 µM (APTT 1).

[2] = test system: Pferdethrombin; test: Thrombin time in citrate plasma; assay type: biochemical, Pferd; conditions: 500 µM in final volume; time as difference to control (control ca. 24 s)
Description: as §1
200 µl Citratplasma werden in einem Kugelkoagulometer (KC10 der Fa. Amelung) 2 Minuten bei 37°C inkubiert. Zu 190 µl vortemperiertem Thrombin-Reagenz (Boehringer Mannheim GmbH; enthält ca. 3 U/ml Pferdethrombin und 0.0125 M Ca^++ gibt man 10 µl Dimethylsulfoxid (DMSO) oder eine Lösung der Wirksubstanz in DMSO. Mit Zugabe dieser 200 µl Lösung zum Plasma wird eine Stoppuhr gestartet und der Zeitpunkt bis zum Eintritt der Gerinnung bestimmt. Die Thrombinzeit beträgt bei den Kontrollmessungen ca. 24 Sekunden und wird durch Wirksubstanzen verlängert. Sofern bei den Messungen nach 5 Minuten keine Gerinnung eintrat, wurde der Versuch gestoppt (>300).
In Tabelle 1 sind die gemessenen Thrombinzeiten in Sekunden als Differenz zur Kontrolle angegeben. Die Konzentrationen der Wirksubstanzen betrugen im Endvolumen 500 µM (TT 500).

[3] = molecular target: T1, humanem Faktor Xa (Homo sapiens, UniProt P00742); test: Inhibition constants (Ki), chromogenic substrate Chromozym X, FXa; assay type: biochemical; conditions: pH 7.5, 25°C, 0.1 M phosphate buffer
T1 construct: humanem Faktor Xa; purchased Boehringer Mannheim GmbH
T1 sequence (P00742 235-488 limits assumed): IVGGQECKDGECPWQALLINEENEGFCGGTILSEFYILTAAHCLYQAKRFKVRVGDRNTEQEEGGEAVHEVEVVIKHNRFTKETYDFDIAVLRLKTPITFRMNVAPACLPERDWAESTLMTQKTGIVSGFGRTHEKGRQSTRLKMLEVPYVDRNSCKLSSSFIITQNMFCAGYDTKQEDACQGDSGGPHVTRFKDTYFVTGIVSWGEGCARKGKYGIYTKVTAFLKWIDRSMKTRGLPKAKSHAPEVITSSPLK
T1 sequence (P00742 41-179 partner limits assumed): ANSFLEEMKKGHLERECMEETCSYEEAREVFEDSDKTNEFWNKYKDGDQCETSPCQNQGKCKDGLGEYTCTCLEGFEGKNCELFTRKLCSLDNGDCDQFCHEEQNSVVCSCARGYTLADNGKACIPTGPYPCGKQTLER
Description: (§2) Die kinetischen Messungen wurden in 0.2 M Kochsalz und 0.5 % Polyethylenglycol 6000 enthaltendem 0.1 M Phosphatpuffer (Herstellung siehe unten) bei pH 7.5 und 25°C in Polystyrol-Halbmikroküvetten in einem Gesamtvolumen von 1 mi durchgeführt. Die Reaktionen wurden durch Zugabe von Enzym zu vorinkubierten Lösungen, die entweder Dimethylsulfoxid (Kontrolle) oder Lösungen der Testsubstanz in DMSO (Inhibitor-Stocklösungen: 10 mM in DMSO) enthielten, gestartet. Die Zunahme der Extinktion bei 405 nm als Folge der Freisetzung von 4-Nitroanilin aus dem Substrat wurde photometrisch über einen Zeitraum von 12 Minuten verfolgt. Im Abstand von 20 Sekunden wurden Meßwerte (Extinktion vs. Zeit) ermittelt und diese Daten per Computer gespeichert.
(§3) Zur Bestimmung der Inhibitionskonstanten Ki wurde wie folgt vorgegangen: Die Geschwindigkeiten V0 (Extinktionsänderung pro Sekunde; Messungen ohne Inhibitor) und Vi (Extinktionsänderung pro Sekunde; Messungen mit Inhibitor) wurden durch lineare Regression bestimmt, wobei nur die Meßpunkte berücksichtigt wurden, bei der sich die Substratkonzentration um weniger als 15% verringerte. Aus einer Meßreihe (konstante Inhibitorkonzentration, variable Substratkonzentrationen) bestimmte man KM und VMAX durch nichtlinearen Fit auf die Gleichung V =(Vmax * [S])/([S] + KM) [formula] […]

[4] = molecular target: T2, bovines pankreatisches Trypsin (Bos taurus, UniProt P00760); test: Inhibition constants (Ki), chromogenic substrate S-2238, trypsin; assay type: biochemical, bovin; conditions: pH 7.5, 25°C, 0.1 M phosphate buffer
T2 construct: purchased Sigma; host or cells: bovine pancreas
T2 sequence (P00760 24-246): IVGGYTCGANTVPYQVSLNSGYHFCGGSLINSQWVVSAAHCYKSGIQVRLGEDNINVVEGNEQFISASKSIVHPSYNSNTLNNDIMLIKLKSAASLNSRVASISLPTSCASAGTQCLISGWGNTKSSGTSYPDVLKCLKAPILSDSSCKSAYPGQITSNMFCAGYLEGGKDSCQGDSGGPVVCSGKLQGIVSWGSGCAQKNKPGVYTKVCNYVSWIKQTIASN
Description: as §2, §3

[5] = molecular target: T3, Humanes α-Thrombin (Homo sapiens, UniProt P00734); test: Inhibition constants (Ki), chromogenic substrate S-2238, thrombin; assay type: biochemical; conditions: pH 7.5, 25°C, 0.1 M phosphate buffer
T3 construct: Humanes α-Thrombin; purchased Sigma
Description: as §2, §3

Row | Structure (SMILES) | APTT 1000 [1] [s] | other results
1 | COC(=O)c1ccc(NC(=O)c2ccc3ccccc3c2)c(NC(=O)c2ccc(C(N)=S)cc2)c1 [Beispiel 1, 4-[(Naphthalin-2-carbonyl)-amino]-3-(4-thiocarbamoyl-benzoylamino)-benzoesäuremethylester] | 1 | –
2 | NC(=S)c1ccc(C(=O)Nc2cc(C(=O)O)ccc2NS(=O)(=O)c2ccc3ccccc3c2)cc1 [Beispiel 10, 4-(Naphthalin-2-sulfonylamino)-3-(4-thiocarbamoyl-benzoylamino)-benzoesäure] | 0.7 | –
3 | COC(=O)c1ccc(NC(=O)c2ccc(OC)cc2)c(NC(=O)c2ccc(C(N)=S)cc2)c1 [Beispiel 4, 4-(4-Methoxy-benzoylamino)-3-(4-thiocarbamoyl-benzoylamino)-benzoesäuremethylester] | 65.3 | –
4 | COc1ccc(C(=O)Nc2ccccc2NC(=O)c2ccc(C(N)=S)cc2)cc1 [Beispiel 3, 2-(4-Methoxy-benzoylamino)-1-(4-thiocarbamoyl-benzoylamino)-benzol] | 157.9 | TT 500 [2]: 2.4 s; Ki [3]: 0.05 µM; Ki [4]: > 100 µM; APTT 1 ([1]; 1 µM in final volume): 2.6 s; APTT 10 ([1]; 10 µM in final volume): 8.4 s; APTT 100 ([1]; 100 µM in final volume): 32.4 s; Ki [5]: > 100 µM
5 | NC(=S)c1ccc(C(=O)Nc2ccccc2NC(=O)c2ccc(C(N)=S)cc2)cc1 [Beispiel 9, 1,2-Bis-(4-thiocarbamoyl-benzoylamino)-benzol] | 6.7 | –
6 | COC(=O)c1ccc(NS(=O)(=O)c2ccc3ccccc3c2)c(NC(=O)c2ccc(C(N)=S)cc2)c1 [Beispiel 8, 4-(Naphthalin-2-sulfonylamino)-3-(4-thiocarbamoyl-benzoylamino)-benzoesäuremethylester] | -0.4 | –
7 | COC(=O)c1ccc(NC(=O)c2ccc(OC)c(OC)c2)c(NC(=O)c2ccc(C(N)=S)cc2)c1 [Beispiel 5, 4-(3,4-Dimethoxy-benzoylamino)-3-(4-thiocarbamoyl-benzoylamino)-benzoesäuremethylester] | 3.5 | –
8 | NC(=S)c1ccc(C(=O)Nc2cc(C(=O)O)ccc2NC(=O)c2ccc3ccccc3c2)cc1 [Beispiel 2, 4-[(Naphthalin-2-carbonyl)-amino]-3-(4-thiocarbamoyl-benzoylamino)-benzoesäure] | 9.4 | –
9 | COC(=O)c1ccc(NC(=O)c2ccccc2C(=O)O)c(NC(=O)c2ccc(C(N)=S)cc2)c1 [Beispiel 6, 4-(2-Carboxy-benzoylamino)-3-(4-thiocarbamoyl-benzoylamino)-benzoesäuremethylester] | 9.0 | –
10 | COC(=O)c1ccc(NS(=O)(=O)c2ccc(OC)cc2)c(NC(=O)c2ccc(C(N)=S)cc2)c1 [Beispiel 7, 4-(4-Methoxy-benzolsulfonylamino)-3-(4-thiocarbamoyl-benzoylamino)-benzoesäuremethylester] | 0.8 | –
